The values below come from US6013809A, “Substituted heterocyclic benzocycloalkenes and the use thereof as substances having an analgesic effect” (Gruenenthal GmbH, priority 1997, dated 2000).

Where a name gives a salt, the structure may show the parent alone. Read-outs that look alike come from different tables or passages of the source.

One may read the Ki as the equilibrium dissociation constant of an inhibitor or competing ligand from its target.

One assay concerns the target T1, δ-opiate receptor (Rattus norvegicus, UniProt P33533).
T1 construct: freshly prepared rat brain was homogenised in 50 mmoles/l Tris-HCl (pH 7.4); from tissue; host or cells: rat brain without cerebellum, pons and medulla oblongata, male Wistar rats; membrane homogenate
The assay can be described thus: δ-opiate receptor binding, displacement of (^3H)-2-D-Ala-deltorphin II on rat brain homogenates. Details: species or system rat (male Wistar rats). The protocol: Investigations for determining the affinity of compounds of formula I according to the invention for the δ-opiate receptor, which is a crucial prerequisite for analgesic properties, were performed on […] homogenates (rat brain homogenates, without the cerebellum, pons and medulla oblongata, from male Wistar rats). Selected compounds of formula I were used for the detection of δ-opiate receptor properties.
For this purpose, freshly prepared rat brain was homogenised in 50 mmoles/l Tris-HCl (pH 7.4) whilst cooling in ice, and was centrifuged for 10 minutes at 5000 g. After decanting and discarding the supernatant liquor, and renewed take-up and homogenisation of the membrane sediment in 50 mmoles/l Tris-HCl (pH 7.4), the homogenate was subsequently centrifuged for 20 minutes at 20,000 g and 4° C. This washing step was repeated once more. Thereafter, the supernatant liquor was decanted and the membrane sediment was homogenised in cold 50 mmoles/l Tris-HCl, 20% glycerol (w/v), 0.01% bacitracin (w/v) (pH 7.4) and was frozen in aliquots until testing was performed.
For the receptor binding tests, the aliquots were thawed out and diluted 1:10 with the binding test buffer.
The buffer used in the binding test comprised 50 mmoles/l Tris-HCl, 5 mmoles/l MgCl (pH 7.4), supplemented with 0.1% (w/v) bovine serum albumin. […] (^3 H)-2-D-Ala-deltorphin II was used as the radioactive ligand. The proportion of non-specific binding was determined in the presence of 10 mmoles/l naloxon.
The compounds according to the invention were added to further batches in series of concentrations and the displacement of the radioactive ligand from its specific binding site was determined. The respective triple batches were incubated for 90 minutes at 37° C. and were subsequently harvested by means of filtration through glass fibre filters (GF/B) for the determination of the radioactive ligand bound to the membrane homogenate. The radioactivity of the glass fibre filter discs was measured in a β-counter after adding a scintillator.
The affinity of the compounds according to the invention for the δ-opiate receptor was calculated as the IC50 according to the law of mass action by means of nonlinear regression. The K values in Table 1 are given as the mean value±the standard deviation from three mutually independent tests.

Another assay deals with cancer patients. Particulars: intrathecal, cancer patients on whom morphine no longer had an analgesic effect; cited from earlier work.
[1] abbreviates: 90 minutes at 37° C., pH 7.4, mean value ± standard deviation from three independent tests, read-out: δ-opiate receptor binding Ki.
Where [2] appears, read: meaning of the second figure not stated, read-out: δ-opiate receptor binding Ki, second unlabelled figure printed behind the mean ± standard deviation.

T1 sequence (P33533 whole entry): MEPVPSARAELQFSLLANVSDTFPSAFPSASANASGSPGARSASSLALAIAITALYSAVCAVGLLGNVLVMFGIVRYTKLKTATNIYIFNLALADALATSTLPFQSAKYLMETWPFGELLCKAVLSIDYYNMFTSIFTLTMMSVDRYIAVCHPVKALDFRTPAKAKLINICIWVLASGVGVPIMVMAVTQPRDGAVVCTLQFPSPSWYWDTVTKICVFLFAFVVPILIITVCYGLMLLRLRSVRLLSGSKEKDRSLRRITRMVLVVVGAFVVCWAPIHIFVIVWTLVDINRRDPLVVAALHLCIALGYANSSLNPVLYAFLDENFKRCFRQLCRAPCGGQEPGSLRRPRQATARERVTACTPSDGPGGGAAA

Take `COc1ccc2c(c1)OCCC(CN(C)C)=C2c1cccc(O)c1` [Example 2g, 3-(4-dimethylaminomethyl-8-methoxy-2,3-dihydrobenzo[b]oxepin-5-yl)-phenol hydrochloride]: the Ki is 6.19 nM at δ-opiate receptor (setting [1]) and 6.01 nM on δ-opiate receptor (setting [2]).

With `CN(C)CC1=C(c2cccc(O)c2)c2ccccc2[S+]([O-])CC1` (racemic) [Example 3, 3-(4-dimethylaminomethyl-1-oxo-2,3-dihydro-1H-1λ^4-benzo[b]thiepin-5-yl)-phenol hydrochloride], the Ki at δ-opiate receptor (setting [1]) was 2.1 ± 0.13 nM.

With `CN(C)CC1=C(c2cccc(O)c2)c2ccccc2OC1` [Example 7, 3-(3-dimethylaminomethyl-2H-chromen-4-yl)-phenol hydrochloride], the Ki at δ-opiate receptor (setting [1]) was determined as 68.4 ± 8.4 nM.

As for `CN(C)CC1=C(c2cccc(O)c2)c2ccc3ccccc3c2OC1` [Example 2b, 3-(3-dimethylaminomethyl-2H-benzo[b]chromen-4-yl-phenol hydrochloride], the Ki on δ-opiate receptor (setting [1]) was determined as 348 ± 65 nM.

In the case of `CN(C)CC1=C(c2cccc(O)c2)c2ccccc2OCC1` [Example 2e, 3-(4-dimethylaminomethyl-2,3-dihydro-benzo[b]oxepin-5-yl)-phenol hydrochloride], the Ki at δ-opiate receptor (setting [1]) was 8.5 ± 3 nM.

As to `COc1ccc2c(c1)[S+]([O-])CCC(CN(C)C)=C2c1cccc(O)c1` (centres unmarked) [Example 9a, 3-(4-dimethylaminomethyl-8-methoxy-1-oxo-2,3-dihydro-1H-1-2-4-benzo[b]thiepin-5-yl)-phenol hydrochloride], the Ki on δ-opiate receptor (setting [1]) was found to be 1.75 nM.

Regarding `COc1ccc2c(c1)SCCC(CN(C)C)=C2c1cccc(O)c1` [Example 2h, 3-(4-dimethylaminomethyl-8-methoxy-2,3-dihydrobenzo[b]thiepin-5-yl)-phenolhydrochloride], the figures for the Ki on δ-opiate receptor (setting [1]) and on δ-opiate receptor (setting [2]) were 2.67 nM and 1.76 nM, respectively.

Turning to `CN(C)CC1=C(c2cccc(O)c2)c2ccccc2SC1` [Example 5, 3-(3-dimethylaminomethyl-2H-thiochromen-4-yl)-phenol hydrochloride], the Ki on δ-opiate receptor (setting [1]) worked out at 68.2 ± 10.1 nM.

As to `CN(C)CC1=C(c2cccc(O)c2)c2ccc3c(c2OC1)OCCO3` [Example 2d, 3-(7-dimethylaminomethyl-2,3-dihydro-6H-1,4,5,-trioxa-phenanthren-8-yl)-phenol hydrochloride], on δ-opiate receptor (setting [1]), the Ki worked out at 18.4 ± 1.6 nM.

For the compound “D-alanine^2 -D-leucine^5 enkeplialin [DADL]”, the analgesic effect entry in the assay with cancer patients is reported as “long-lasting analgesic effect”.

As for `CN(C)CC1=C(c2cccc(O)c2)c2ccccc2SCC1` [Example 1, 3-(4-dimethylaminomethyl-2,3-dihydro-benzo[b]thiepin-5-yl)-phenol hydrochloride], at δ-opiate receptor (setting [1]), the Ki worked out at 10.2 ± 4.5 nM.

For `CN(C)CC1=C(c2cccc(O)c2)c2ccc3ccccc3c2SC1` [Example 2c, 3-(2-dimethylaminomethyl-3H-4-thiaphenanthren-1-yl)-phenol hydrochloride], at δ-opiate receptor (setting [1]), the Ki is 137 ± 13 nM.

Turning to `CN(C)CC1=C(c2cccc(O)c2)c2cc(O)ccc2OC1(C)C` [Example 8, 3-dimethylaminomethyl-4-(3-hydroxy-phenyl)-2,2-di-methyl-2H-chromen-6-ol hydrochloride], the Ki on δ-opiate receptor (setting [1]) is 393 ± 46 nM.

As for `CN(C)CC1=C(c2cccc(O)c2)c2ccc(O)cc2SCC1` [Example 11b, 4-dimethylaminomethyl-5-(3-hydroxy-phenyl)-2,3-dihydro-benzo[b]thiepin-8-ol hydrochloride], the Ki at δ-opiate receptor (setting [1]) came out at 6.43 nM; on δ-opiate receptor (setting [2]), 6.71 nM.
